Source: paper PMC8020795 (Proceedings of the National Academy of Sciences of the …, 2021)

Tests used:
JHH-7 cells = experiment: Western blot of phospho-ERK and phospho-AKT after CXCL12 stimulation; format: cell-based, human; conditions: 10 µM, CXCL12 stimulation
Protocol: (§1) Western blotting was conducted by following standard procedures. HCA-1 or JHH-7 cells (10^5 cells per well) were seeded in 12-well plates (Costar, IL), incubated for 12 h and […]
containing (100 ng/mL) serum-free medium. After 24 h, the cells were lysed in RIPA buffer on ice for 30 min, and samples were collected and loaded with 4× Laemmli Sample buffer (Bio-Rad, Hercules, CA). The samples were separated on a 10% SDS-PAGE gels and transferred to PVDF membranes. After blocking with skim milk for 1 h, the membranes were incubated at 4°C overnight with primary antibodies against p -AKT, AKT, p-ERK, ERK (Cell Signaling, Danvers, MA) or β-actin (Sigma-Aldrich, St. Louis, MO) before incubation with HRP-conjugated secondary antibodies (Antibodies Inc., Davis, CA) for 1 h. […]
Total RNA was extracted from HCA-1 cells using the RNeasy Mini Kit (Qiagen, CA, USA). cDNAs were synthesized using the High-Capicity cDNA Reverse Transcription Kit […]
Biosystems, CA, USA) on a QPCR System. The comparative threshold cycle method was used to calculate fold change in gene expression, which was normalized to β-actin as a […]

CXCR4+CD34+ stem cells = experiment: CXCR4+CD34+ stem cell mobilization; format: in vivo, C57BL/6 mice; conditions: 6 mg/kg SC, peripheral blood 2 h after dosing
Protocol: Cy7, and CD206-APC (BioLegend, San Diego, CA) antibodies, as previously described.[8] Flow cytometry data were acquired on a BD FACSAria III flow cytometer and analyzed with […]
C57BL/6 male mice were treated with potential CXCR4 antagonist individually by subcutaneous injection, and then blood samples containing mobilized stem/progenitor cells were collected 2 hours later. After labeled with specific antibodies, including APC-conjugated anti-CXCR4 (clone 2B11; eBioscience) and FITC-conjugated anti-CD34 (clone RAM34; eBioscience), cells were washed, characterized and quantified by flow cytometer (Guava Technologies, Hayward, CA, USA). Each data point included at least 60,000 events for analysis of other cell types.
as §1
Reverse transcription quantitative real time PCR
Total RNA was extracted from HCA-1 cells using the RNeasy Mini Kit (Qiagen, CA, USA). cDNAs were synthesized using the High-Capicity cDNA Reverse Transcription Kit (Applied Biosystems, CA, USA). Primers specific for Slug, Fn1, Cdh2, Vim, Foxc2, Zeb1, Zeb2, Twist1, Cdh1, Mta3, Cldn3, Cldn5, β-actin and GAPDH were used, and relative gene expression was determined using Real-Time SYBR Green PCR Master Mix (Applied Biosystems, CA, USA) on a QPCR System. […]

DEN/CCl4-induced HCC = experiment: DEN/CCl4-induced liver fibrosis associated HCC model; format: in vivo, C3H mice
Protocol: In vivo hepatocellular carcinoma treatment studies […]
mouse PD-1 (200 µg/mouse; BioXcell, BE0146). The therapeutic efficacy and the changes in immune cells were analyzed after two weeks of treatment. The tumor volume was calculated with the following formula: volume = width × length × height/2. The lung metastatic nodules

Question: Which “CXCR4/CXCL12-triggered ERK and Akt activation” value (JHH-7 cells) does the source give for `Cc1cc(NC2CCN(C(=O)CCNCC(=O)O)CC2)nc(NCc2nc(CCCNCCCNC3CCCCC3)co2)n1` [BPRCX807] here?
Answer: suppress CXCR4/CXCL12-triggered ERK and Akt activation more significantly than its counterparts

Question: And the “Number of CXCR4+CD34+ stem cells mobilized, relative to AMD3100” value (CXCR4+CD34+ stem cells)?
Answer: roughly 1.5 fold

Question: What about the “Tumors in fibrotic liver” value (DEN/CCl4-induced HCC; combination with anti–PD-1, BPRCX807 15 mg/kg/d SC minipump weeks 25 to 28) of the same compound?
Answer: remarkably suppressed

Question: What about the Tumor size (DEN/CCl4-induced HCC; combination with sorafenib) of the same compound?
Answer: significantly reduce tumor size more efficiently than sorafenib alone
